This assay addresses T1, cytosolic PLA2 (Homo sapiens, UniProt P47712).
T1 sequence (P47712 1-749): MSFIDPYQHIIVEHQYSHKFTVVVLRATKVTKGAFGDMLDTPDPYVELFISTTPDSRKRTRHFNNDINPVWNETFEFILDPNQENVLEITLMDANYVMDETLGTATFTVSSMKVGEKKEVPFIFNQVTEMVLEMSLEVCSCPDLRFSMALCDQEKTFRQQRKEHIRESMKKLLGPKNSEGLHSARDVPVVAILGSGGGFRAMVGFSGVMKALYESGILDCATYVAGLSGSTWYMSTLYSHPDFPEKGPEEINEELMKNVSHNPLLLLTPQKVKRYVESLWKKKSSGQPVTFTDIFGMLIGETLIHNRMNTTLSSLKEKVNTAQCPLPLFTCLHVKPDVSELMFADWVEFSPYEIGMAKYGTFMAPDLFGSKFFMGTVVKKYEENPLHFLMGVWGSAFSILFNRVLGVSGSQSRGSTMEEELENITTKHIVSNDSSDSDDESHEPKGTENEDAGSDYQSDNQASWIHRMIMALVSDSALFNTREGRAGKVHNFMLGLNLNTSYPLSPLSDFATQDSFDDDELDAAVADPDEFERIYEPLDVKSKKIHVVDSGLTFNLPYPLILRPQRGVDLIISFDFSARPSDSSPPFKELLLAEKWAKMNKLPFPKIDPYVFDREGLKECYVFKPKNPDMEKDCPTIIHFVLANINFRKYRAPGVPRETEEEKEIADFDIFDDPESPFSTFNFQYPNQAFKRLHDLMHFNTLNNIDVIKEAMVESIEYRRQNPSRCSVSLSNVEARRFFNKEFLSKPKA
In words: Cytosolic PLA2 inhibition activity (sonicated liposomes with 1-palmitoyl-2-[14C]arachidonyl-sn-glycero-3-phosphocholine). Format: biochemical. Particulars: for pIC50: 2 μM radiolabeled phosphatidylcholine liposomes, 1 mM CaCl2, pH 7.4; for inhibition at 2 µM: compound at 2 μM, relative to enzyme control. As for the experimental part: Taking the above matter into consideration, the compounds of the present invention were evaluated for their effect on cytosolic PLA2 activity as described in published literature [Kramer, R. M., Robers, E. F., Manetta, J. and Putanam, J. E. et al., J. Biol. Chem. 268 (8): 5268-5272, 1991]. Briefly, PLA2 activity was assayed using sonicated liposomes containing 1-palmitoyl-2-[^14 C]arachidonyl-sn-glycero-3-phosphocholine and sn-1,2-dioleoyl glycerol at a molar ratio of 2:1. The assay mixture contained 1 mM CaCl2, 2 mM 2-mercaptoethanol, 150 mM NaCl, 50 mM Hepes, pH 7.4, and 0.1 mg/ml BSA. The substrate consisted of 2 μM radiolabeled phosphatidycholine liposomes containing 1 μM dioleoyl glycerol.
The amount of released fatty acids in the reaction as mentioned above was quantitated by a liquid scintillation counter. Separately, the same assay was performed except that the compound of the present invention was not added to serve as the enzyme control. The inhibitioory activity was expressed as a percent (%) of PLA2 activity in the enzyme control, and thereby 50% inhibition concentration was calculated.

The structures appear in SMILES notation. pIC50: −log10 of the molar value.

As usually defined, the pIC50 is the IC50 on a negative log10 scale, so that one unit is a factor of ten. Low readings indicate a high IC50, high ones a low IC50. One may read the inhibition as the percentage by which the read-out fell short of the control. A low value points to a response near the control. Consider `O=C1O[C@H](c2ccccc2)[C@@H](c2ccccc2)N1Cc1cccc(F)c1` [Compound 0212], for which the pIC50 was 4.37 and 2 µM produced 21% inhibition.

`CC(C)=CCC/C(C)=C\CN1C(=O)O[C@H](c2ccccc2)[C@H]1c1ccccc1` [Compound 0296] had a pIC50 of 4.96 and an inhibition at 2 µM of 21%.

Regarding `COC(=O)c1c(-c2ccccc2)oc(=O)n1Cc1ccccc1` [Compound 0079], the pIC50 is 3.66.

For the molecule `O=C1O[C@H](c2ccccc2)[C@@H](c2ccccc2)N1Cc1ccc(Cl)s1` [Compound 0246], the negative-log IC50 (pIC50) is 4.30 and the inhibition at 2 µM worked out at 20%.

In turn, `O=C(O)c1ccc(-c2oc(=O)n(Cc3ccccc3)c2-c2ccc(C(=O)O)cc2)cc1` [Compound 0054, 3-Benzyl-4,5-bis-(4-hydroxycarbonylphenyl)-3-oxazolin-2-one] showed a pIC50 of 3.91.

Regarding `CC(C)=CCn1cc(C(c2ccccc2)(c2ccccc2)c2ccccc2)oc1=O` [Compound 0140], the pIC50 was 4.05. The pIC50 values of the last two molecules are within 0.2 log units of each other.

Turning to `O=c1oc(-c2ccccc2)c(-c2ccccc2)n1CCc1ccccc1` [Compound 0075, 4,5-Diphenyl-3-N-phenylethyl-3-oxazolin-2-one], the pIC50 is 4.85 and the inhibition at 2 µM stood at 21%.

On to `O=C(Cn1c(-c2ccccc2)c(-c2ccccc2)oc1=O)OC(c1ccccc1)c1ccccc1` [Compound 0003], for which the pIC50 is 4.28.

`O=c1oc(C(c2ccccc2)c2ccccc2)cn1CCCOc1ccc(C(F)(F)F)cc1` [Compound 0153] showed a pIC50 of 3.90.

Regarding `CN1CCN(S(=O)(=O)c2ccc(-c3oc(=O)[nH]c3-c3ccccc3)cc2)CC1` [Compound 0037], the pIC50 was 3.68.

`CC(C)=CCC/C(C)=C/CC/C(C)=C/CN1C(=O)O[C@H](c2ccccc2)[C@H]1c1ccccc1` [Compound 0303] had a pIC50 of 4.30 and an inhibition at 2 µM of 18%.

As for `O=c1oc(-c2ccccc2)c(-c2ccccc2)n1Cc1ccc(F)cc1` [Compound 0048, 3-(4-Fluorobenzyl)-4,5-diphenyl-oxazol-2-one], the pIC50 is 4.77.

The molecule `O=C1O[C@H](c2ccccc2)[C@H](c2ccccc2)N1Cc1cccc(F)c1` [Compound 0168] showed a pIC50 of 4.18.

Molecule `O=c1oc(-c2ccccc2)c(-c2ccccc2)n1Cc1ccc(Cl)s1` [Compound 0086] showed a pIC50 of 5.08 and an inhibition at 2 µM of 19%.

With `C#CCn1c(-c2ccccc2)c(-c2ccccc2)oc1=O` [Compound 0062, 3-(2-propynyl)-4,5-diphenyl-oxazol-2-one], the pIC50 was 4.30.

`O=c1oc(-c2ccccc2)c(-c2ccccc2)n1CCCc1ccccc1` [Compound 0092] gave a pIC50 of 5.08 and an inhibition at 2 µM of 28%.

Consider `CC(C)=CCC/C(C)=C\CN1C(=O)O[C@@H](c2ccccc2)[C@@H]1c1ccccc1` [Compound 0313], for which the negative-log IC50 (pIC50) is ~4.30 and 2 µM produced 13% inhibition.

For `O=c1oc(-c2ccccc2)c(-c2ccccc2)n1CCCCOc1ccccc1` [Compound 0090], the pIC50 is 4.19 and the inhibition at 2 µM came out at 14%.

Molecule `O=c1[nH]cc(C(c2ccccc2)c2ccccc2)o1` [Compound 0142] gave a pIC50 of 3.66.

Molecule `Cn1c(-c2ccccc2)c(-c2ccccc2)oc1=O` [Compound 0002] gave a pIC50 of 4.17.

As to `O=c1oc(-c2ccccc2)c(-c2ccccc2)n1Cc1ccccc1F` [Compound 0047, 3-(2-Fluorobenzyl)-4,5-diphenyl-oxazol-2-one], the pIC50 was 4.46 and 2 µM produced 17% inhibition.

In turn, `CC(C)=CCC/C(C)=C/Cn1c(-c2ccccc2)c(-c2ccccc2)oc1=O` [Compound 0070] showed a pIC50 of 5.37 and an inhibition at 2 µM of 46%.

Regarding `O=c1oc(-c2ccccc2)cn1C(c1ccccc1)c1ccccc1` [Compound 0097], the pIC50 is 4.55 and 2 µM produced 48% inhibition.

In turn, `O=C(O)c1[nH]c(=O)oc1-c1ccccc1` [Compound 0029] had a pIC50 of 3.99.

In the case of `CC(C)=CCC/C(C)=C/CN1C(=O)O[C@@H](c2ccccc2)[C@H]1c1ccccc1` [Compound 0182], the pIC50 is 4.18. The pIC50 values of the last two molecules are within 0.2 log units of each other.

Turning to `CC(C)=CCC/C(C)=C/CC/C(C)=C/Cn1c(-c2ccccc2)c(-c2ccccc2)oc1=O` [Compound 0069], the pIC50 is 3.82.

In turn, `O=c1oc(-c2ccccc2)c(-c2ccccc2)n1CCCCc1ccccc1` [Compound 0108] gave a pIC50 of 4.23.

`CCCCn1c(-c2ccccc2)c(-c2ccccc2)oc1=O` [Compound 0044] had a pIC50 of 4.27 and an inhibition at 2 µM of 19%.

With `O=c1oc(-c2ccccc2)c(-c2ccccc2)n1S(=O)(=O)c1ccc2ccccc2c1` [Compound 0067], the pIC50 is < 4.30.

`CC(C)=CCn1cc(C(c2ccccc2)c2ccccc2)oc1=O` [Compound 0155] showed a pIC50 of 4.24.

Molecule `O=c1oc(-c2ccccc2)cn1Cc1ccccc1` [Compound 0073, 3-Benzyl-5-phenyl-4-oxazolin-2-one] showed a pIC50 of 4.30.

Take `O=c1oc(-c2ccccc2)c(-c2ccccc2)n1Cc1ccccc1` [Compound 0001]: the pIC50 is 5.22 and the inhibition at 2 µM turned out to be 34%.

`CC(C)=CCC/C(C)=C/CN1C(=O)O[C@@H](c2cccs2)[C@@H]1c1ccccc1` [Compound 0325] gave a pIC50 of 5.06 and an inhibition at 2 µM of 32%.

Take `CC(C)=CCC/C(C)=C/CN1C(=O)O[C@H](c2ccccc2)[C@@H]1c1ccccc1` [Compound 0169]: the pIC50 was 4.07.

In the case of `O=C1O[C@H](c2ccccc2)[C@H](c2ccccc2)N1Cc1ccc(Cl)s1` [Compound 0199], the pIC50 is 4.49 and testing at 2 µM gave an inhibition of 32%.

In the case of `O=c1oc(-c2ccccc2)c(-c2ccccc2)n1Cc1ccccn1` [Compound 0091, 3-(2'-Pyridylmethyl)-4,5-diphenyl-oxazol-2-one], the pIC50 was 3.98 and the inhibition at 2 µM was 11%.

`CC(C)=CCn1c(-c2ccccc2)c(-c2ccccc2)oc1=O` [Compound 0071]: the pIC50 was 4.89 and testing at 2 µM gave an inhibition of 18%.

In turn, `O=c1oc(-c2ccccc2)c(-c2ccccc2)n1COCc1ccccc1` [Compound 0099] showed a pIC50 of 4.38 and an inhibition at 2 µM of 12%.

In turn, `CC(C)=CCC/C(C)=C/Cn1cc(C(c2ccccc2)c2ccccc2)oc1=O` [Compound 0156] had a pIC50 of 3.92.

With `CC(C)=CCC[C@H](C)CCN1C(=O)O[C@@H](c2ccccc2)[C@@H]1c1ccccc1` [Compound 0347], the pIC50 was 5.13 and the inhibition at 2 µM came out at 33%.

Molecule `CC(C)=CCC/C(C)=C/CN1C(=O)O[C@H](c2ccccc2)[C@H]1c1ccccc1` [Compound 0213] had a pIC50 of 5.03 and an inhibition at 2 µM of 24%.

`O=C1O[C@H](c2ccccc2)[C@@H](c2ccccc2)N1CCCCc1ccccc1` [Compound 0247] gave a pIC50 of 5.00 and an inhibition at 2 µM of 23%.

`Cc1noc(C)c1Cn1c(-c2ccccc2)c(-c2ccccc2)oc1=O` [Compound 0109] had a pIC50 of 3.60.

`CC(C)=CCC[C@@H](C)CCN1C(=O)O[C@@H](c2ccccc2)[C@@H]1c1ccccc1` [Compound 0346] showed a pIC50 of 5.52 and an inhibition at 2 µM of 47%.

Source of the values: patent US5817826A, “Oxazolinone derivatives having cytosolic phospholipase A2 inhibitory activity” (Shionogi & Co., Ltd., priority 1993, dated 1998).
